The source of these data is patent US9340510B2, “Tetrahydroisoquinoline derivatives, pharmaceutical compositions and uses thereof” (Boehringer Ingelheim International GmbH, priority 2014, dated 2016).

human ACC2, sequence (O00763 129-2458): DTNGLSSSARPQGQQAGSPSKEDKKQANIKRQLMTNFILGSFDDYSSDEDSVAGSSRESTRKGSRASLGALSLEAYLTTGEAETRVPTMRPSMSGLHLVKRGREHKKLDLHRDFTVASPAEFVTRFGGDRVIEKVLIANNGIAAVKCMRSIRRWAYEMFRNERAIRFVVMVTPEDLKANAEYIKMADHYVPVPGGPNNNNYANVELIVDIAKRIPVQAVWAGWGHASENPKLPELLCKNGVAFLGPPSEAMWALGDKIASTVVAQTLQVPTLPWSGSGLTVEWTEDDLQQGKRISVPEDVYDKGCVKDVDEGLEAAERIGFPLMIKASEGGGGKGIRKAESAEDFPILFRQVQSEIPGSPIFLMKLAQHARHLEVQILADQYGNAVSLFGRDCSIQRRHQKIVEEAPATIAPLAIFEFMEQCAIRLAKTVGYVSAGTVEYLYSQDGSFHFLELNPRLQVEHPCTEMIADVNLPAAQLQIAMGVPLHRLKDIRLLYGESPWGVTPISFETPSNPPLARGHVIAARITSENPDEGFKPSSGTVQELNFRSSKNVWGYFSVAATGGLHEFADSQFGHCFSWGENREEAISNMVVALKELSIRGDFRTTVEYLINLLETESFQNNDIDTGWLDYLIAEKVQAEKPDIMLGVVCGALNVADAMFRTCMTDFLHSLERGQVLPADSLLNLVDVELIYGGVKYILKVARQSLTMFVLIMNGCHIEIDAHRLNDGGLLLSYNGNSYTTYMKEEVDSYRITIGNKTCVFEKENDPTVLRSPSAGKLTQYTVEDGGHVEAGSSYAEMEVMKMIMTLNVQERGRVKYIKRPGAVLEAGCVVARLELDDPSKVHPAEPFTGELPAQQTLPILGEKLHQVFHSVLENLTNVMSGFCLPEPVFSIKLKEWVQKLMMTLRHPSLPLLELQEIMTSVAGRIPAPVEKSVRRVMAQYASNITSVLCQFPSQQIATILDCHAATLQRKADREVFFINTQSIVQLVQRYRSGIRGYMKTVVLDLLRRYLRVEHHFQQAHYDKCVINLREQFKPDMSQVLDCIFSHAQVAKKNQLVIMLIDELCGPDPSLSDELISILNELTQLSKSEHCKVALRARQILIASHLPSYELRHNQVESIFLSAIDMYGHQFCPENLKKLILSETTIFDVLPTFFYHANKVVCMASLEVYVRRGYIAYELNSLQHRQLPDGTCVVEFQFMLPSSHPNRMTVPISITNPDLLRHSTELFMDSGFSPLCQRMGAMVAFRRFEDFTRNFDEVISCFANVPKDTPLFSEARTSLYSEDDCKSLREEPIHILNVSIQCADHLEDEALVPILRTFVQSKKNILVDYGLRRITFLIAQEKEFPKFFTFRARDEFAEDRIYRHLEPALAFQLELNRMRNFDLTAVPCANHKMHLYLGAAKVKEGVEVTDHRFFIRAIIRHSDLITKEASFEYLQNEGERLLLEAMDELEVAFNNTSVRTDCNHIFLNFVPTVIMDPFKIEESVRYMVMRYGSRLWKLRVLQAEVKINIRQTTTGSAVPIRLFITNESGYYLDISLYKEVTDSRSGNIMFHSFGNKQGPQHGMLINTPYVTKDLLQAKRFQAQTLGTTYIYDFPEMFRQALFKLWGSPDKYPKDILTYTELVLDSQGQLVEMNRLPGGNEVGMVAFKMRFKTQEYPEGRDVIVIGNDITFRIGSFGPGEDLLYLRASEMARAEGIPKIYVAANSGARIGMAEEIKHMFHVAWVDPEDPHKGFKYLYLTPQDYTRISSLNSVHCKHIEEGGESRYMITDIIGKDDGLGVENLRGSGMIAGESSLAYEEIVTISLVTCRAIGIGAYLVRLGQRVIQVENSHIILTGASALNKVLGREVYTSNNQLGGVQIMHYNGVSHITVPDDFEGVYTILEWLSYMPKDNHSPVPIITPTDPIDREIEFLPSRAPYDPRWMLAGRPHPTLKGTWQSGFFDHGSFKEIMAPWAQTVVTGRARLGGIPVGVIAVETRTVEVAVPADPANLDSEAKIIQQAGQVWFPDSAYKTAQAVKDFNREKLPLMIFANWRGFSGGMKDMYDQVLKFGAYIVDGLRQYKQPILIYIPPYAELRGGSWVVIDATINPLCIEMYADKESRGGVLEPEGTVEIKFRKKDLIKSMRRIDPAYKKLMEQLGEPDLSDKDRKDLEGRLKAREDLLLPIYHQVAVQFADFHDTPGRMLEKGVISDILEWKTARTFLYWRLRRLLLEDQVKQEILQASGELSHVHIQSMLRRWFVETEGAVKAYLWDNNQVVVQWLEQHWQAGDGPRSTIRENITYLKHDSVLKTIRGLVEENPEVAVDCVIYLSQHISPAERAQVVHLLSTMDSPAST

The test concerns the target human ACC2 (Homo sapiens (Human), UniProt O00763). Briefly: ACC2 assay: spectrophotometric 384 well assay (coupled lactate dehydrogenase/pyruvate kinase). Format: biochemical. The note with it: hACC2 construct lacking the 128 N-terminal amino acids, 25° C., 340 nm. The method, then:
Spectrophotometric 384 Well Assay
Malonyl CoA formation by acetyl CoA carboxylases is stoichiometrically linked to the consumption of ATP. ACC2 activity is measured in a […] kinetic method measuring ADP generated during the ACC reaction using a coupled lactate dehydrogenase/pyruvate kinase reaction.
For biological testing, a human ACC2 construct which lacks the 128 amino acids at the N-terminus for increased solubility (nt 385-6966 in Genbank entry AJ575592) is cloned. The protein is then expressed in insect cells using a baculoviral expression system. Protein purification is performed by anion exchange.
All compounds are dissolved in dimethyl sulfoxide (DMSO) to a concentration of 10 mM.
Assay reactions are then carried out in 384-well plates, with hACC2 in an appropriate dilution and at final assay concentrations (f.c.) of 100 mM Tris (pH 7.5), 10 mM trisodium citrate, 25 mM KHCO3, 10 mM MgCl2, 0.5 mg/ml BSA, 3.75 mM reduced L-glutathione, 15 U/ml lactate dehydrogenase, 0.5 mM phosphoenolpyruvate, 15 U/ml pyruvate kinase, compounds at different concentrations at final DMSO concentrations of 1%.
The enzymatic reaction is then started by addition of a mixture of NADH, acetyl Coenzyme A (both […].) and ATP (500 uM f.c.). The decrease of the optical density (slope S) is then determined at 25° C. at a wavelength of 340 nm over 15 minutes in a spectrophotometric reader.
Each assay microtiter plate contains wells with vehicle instead of compound as controls for the non-inhibited enzyme (100% CTL; ‘HIGH’) and wells without acetyl-CoA as controls for non-specific NADH degradation (0% CTL; ‘LOW’).
The slope S is used for calculation of % CTL=(S(compound)−S(‘LOW’))/(S(‘HIGH’)−S(‘LOW’))*100. Compounds will give values between 100% CTL (no inhibition) and 0% CTL (complete inhibition).
For IC50 value determination, the sample slope in the presence of the test compound after subtraction of the low controls (S(compound)−S(‘LOW’)) are used.
An IC50 value is derived from the compound slopes at different dosages after subtraction of the low controls (S(compound)-S(‘LOW’)) by non-linear regression curve fitting (equation y=(A+((B−A)/(1+((C/x)^D))))).
The IC50 is the concentration that gives 50% inhibition. Molecule `CC(=O)N[C@@H](C)c1ccc(CN2CCc3c(cccc3OC3CCC3)C2)cc1` [Example 7.005] gave an IC50 of 58 nM.

In turn, `C[C@H](NC(=O)[C@H]1C[C@H](F)C1)c1ccc(CN2Cc3ccc(OCC4CC4)cc3C(O)C2)cc1` (stereo partly shown) [Example 3.049] returned an IC50 of 448 nM.

Turning to `C[C@H](NC(=O)Cc1cncnc1)c1ccc(CN2CCc3cc(OCC4CC4)ccc3C2)cc1` [Example 2.022], the IC50 was 82 nM.

Regarding `C[C@H](NC(=O)C1(C#N)CC1)c1ccc(CN2Cc3ccc(OCC4CC4)cc3C(F)C2)cc1` (stereo partly shown) [Example 3.044], half-maximal inhibition (IC50) required 62 nM.

On to `CC(=O)N[C@@H](C)c1ccc(CN2CCc3c(cccc3C(=O)NCc3ccccc3)C2)cc1` [Example 8.001, 2-[4-((S)-1-Acetylamino-ethyl)-benzyl]-1,2,3,4-tetrahydro-isoquinoline-5-carboxylic acid benzylamide], for which the midpoint of inhibition, the IC50, lay at 715 nM. This IC50 is about 12-fold higher than that of the molecule before.

`CCC(=O)N[C@@H](C)c1ccc(CN2CC(=O)c3cc(OCC4CC4(F)F)ccc3C2)cc1` (stereo partly shown) [Example 7.007] returned an IC50 of 185 nM. This IC50 lies about 3.9-fold lower than the previous one.

`CCC(=O)N[C@@H](C)c1ccc(CN2Cc3ccc(OCC4CC4(F)F)cc3C(F)C2)cc1` (stereo partly shown) [Example 3.027]: inhibition was half-maximal at 38 nM (IC50). This IC50 lies about 4.9-fold lower than the previous one.

Take `CCOc1ccc2c(c1OC)CCN(Cc1ccc([C@H](C)NC(C)=O)cc1)C2C` (stereo partly shown) [Example 1.083]: inhibition was half-maximal at 449 nM (IC50).

Turning to `COC1CN(Cc2ccc([C@H](C)NC(C)=O)cc2)Cc2ccc(OCC3CC3)cc21` (stereo partly shown) [Example 1.094], inhibition was half-maximal at 296 nM (IC50).

Molecule `C[C@H](NC(=O)C1CC1)c1ccc(CN2Cc3ccc(OCC4CC4(F)F)cc3C(F)C2)cc1` (stereo partly shown) [Example 1.060] registered an IC50 of 29 nM.

On to `CC(=O)Nc1nc(C)c(C(=O)N[C@@H](C)c2ccc(CN3CCc4cc(OCC5CC5)ccc4C3)cc2)s1` [Example 2.032], for which 34 nM corresponded to half-maximal inhibition (IC50).

With `C[C@H](NC(=O)C1(O)CC1)c1ccc(CN2CCc3cc(OC[C@@H]4CC4(F)F)ccc3C2)cc1` [Example 2.028], inhibition was half-maximal at 217 nM (IC50).

In the case of `COc1cccc2c1CCN(Cc1ccc([C@H](C)NC(C)=O)cc1)C2` [Example 7.001, N-{(S)-1-[4-(5-Methoxy-3,4-dihydro-1H-isoquinolin-2-ylmethyl)-phenyl]-ethyl}-acetamide], the midpoint of inhibition, the IC50, lay at 192 nM.

`C[C@H](NC(=O)C1CCC(=O)N1)c1ccc(CN2CCc3cc(OC[C@@H]4CC4(F)F)ccc3C2)cc1` (stereo partly shown) [Example 2.029] gave an IC50 of 329 nM.

In the case of `C[C@H](NC(=O)C1CCC[C@@H]1N)c1ccc(CN2Cc3ccc(OCC4CC4)cc3C(F)C2)cc1` (stereo partly shown) [Example 3.056], the IC50 was 886 nM.

The molecule `CC(=O)NC(C)c1ccc(CN2CCc3cc(OCC4CCC4)ccc3C2)cc1` (stereo not shown) [Example 1.011] displayed an IC50 of 67 nM.

As to `CC(=O)NC(C)c1ccc(CN2CCc3c(Cl)cccc3C2)cc1` (stereo not shown) [Example 1.004], it took 206 nM to reach half-maximal inhibition (IC50).

`CC(=O)N[C@@H](C)c1ccc(CN2CCc3cc(OCC4CC4)ccc3C2)cc1` [Example 1.088] came in with an IC50 of 12 nM.

`CC(=O)NC(C)c1ccc(CN2CCc3c(cccc3C(F)F)C2)cc1` (stereo not shown) [Example 1.027] had an IC50 of 699 nM.

In turn, `CC(O)C(=O)N[C@@H](C)c1ccc(CN2CC(=O)c3cc(OCC4CC4)ccc3C2)cc1` (stereo partly shown) [Example 2.042] came in with an IC50 of 624 nM.

`C[C@H](NC(=O)C(F)F)c1ccc(CN2CCc3cc(OCC4CC4(F)F)ccc3C2)cc1` (stereo partly shown) [Example 4.003] returned an IC50 of 25 nM.

With `C[C@H](NC(=O)N(C)C)c1ccc(CN2CCc3cc(OCC4CC4(F)F)ccc3C2)cc1` (stereo partly shown) [Example 5.003], the IC50 is 20 nM. The IC50 values of the last two molecules are within 1.5-fold of each other.

Molecule `C[C@H](NC(=O)C1CC1)c1ccc(CN2CCc3cc(OCC4CCC4)ccc3C2)cc1` [Example 2.017] yielded an IC50 of 38 nM. This IC50 is about 1.9-fold higher than that of the molecule before.

Turning to `C[C@H](NC(=O)C1CC1)c1ccc(CN2CCc3cc(OCCC(F)(F)F)ccc3C2)cc1` [Example 1.045], inhibition was half-maximal at 83 nM (IC50).

`C[C@H](NC(=O)c1cnn(C)c1Cl)c1ccc(CN2CCc3cc(OCC4CC4(F)F)ccc3C2)cc1` (stereo partly shown) [Example 3.016] registered an IC50 of 162 nM.

For `CCOc1ccc2c(c1)CCN(Cc1ccc([C@H](C)NC(=O)C3CC3)cc1)C2` [Example 1.043], the IC50 worked out at 180 nM.

In the case of `C[C@H](NC(=O)CC(=O)N(C)C)c1ccc(CN2CCc3cc(OCC4CC4)ccc3C2)cc1` [Example 2.03], the IC50 is 459 nM.

`C[C@H](NC(=O)C1CC1)c1ccc(CN2CCc3c(ccc(OCC4CC4)c3Cl)C2)cc1` [Example 1.050] yielded an IC50 of 120 nM.

With `CC(=O)NC(C)c1ccc(CN2CCc3c(ccc(OCC(C)C)c3Cl)C2)cc1` (stereo not shown) [Example 1.030], 58 nM corresponded to half-maximal inhibition (IC50).

Take `COc1c(OCC2CC2)ccc2c1CCN(Cc1ccc([C@H](C)NC(=O)C3CC3)cc1)C2` [Example 1.048]: 139 nM corresponded to half-maximal inhibition (IC50).

`CC(C)Oc1ccc2c(c1)CCN(Cc1ccc([C@H](C)NC(=O)C3CC3)cc1)C2` [Example 1.047] displayed a half-inhibitory concentration (IC50) of 71 nM.

For the molecule `CCC(=O)N[C@@H](C)c1ccc(CN2Cc3ccc(OCC4CC4)cc3C(F)C2)cc1` (stereo partly shown) [Example 3.024], the IC50 is 22 nM.

`CCCOc1cccc2c1CCN(Cc1ccc(C(C)NC(C)=O)cc1)C2` (stereo not shown) [Example 1.019] gave an IC50 of 326 nM.

Take `C[C@H](NC(=O)CO)c1ccc(CN2CC(=O)c3cc(OCC4CC4(F)F)ccc3C2)cc1` (stereo partly shown) [Example 2.039]: inhibition was half-maximal at 565 nM (IC50). Against the preceding molecule, the IC50 is about 1.7-fold higher.

`C[C@H](NC(=O)N(C)C)c1ccc(CN2Cc3ccc(OCC4CC4(F)F)cc3C(O)C2)cc1` (stereo partly shown) [Example 6.002] displayed an IC50 of 173 nM.

As to `COc1c(OCC2CC2(F)F)ccc2c1CCN(Cc1ccc([C@H](C)NC(C)=O)cc1)C2` (stereo partly shown) [Example 1.064], the midpoint of inhibition, the IC50, lay at 104 nM.

The molecule `COC(=O)C1c2ccc(OCC3CC3)cc2CCN1Cc1ccc([C@H](C)NC(C)=O)cc1` (stereo partly drawn) [Example 9.000, 2-[4-((S)-1-Acetylamino-ethyl)-benzyl]-6-cyclopropylmethoxy-1,2,3,4-tetrahydro-isoquinoline-1-carboxylic acid methyl ester] returned a half-maximal inhibitory concentration (IC50) of 190 nM.

As for `C[C@H](NC(=O)C1(C#N)CC1)c1ccc(CN2CCc3cc(OCC4CC4(F)F)ccc3C2)cc1` (stereo partly shown) [Example 3.013], it took 40 nM to reach half-maximal inhibition (IC50).

`COc1c(OCC2CC(F)(F)C2)ccc2c1CCN(Cc1ccc([C@H](C)NC(C)=O)cc1)C2C` (stereo partly shown) [Example 1.087] showed an IC50 of 189 nM.

For `CCOc1ccc2c(c1Cl)CCN(Cc1ccc(C(C)NC(C)=O)cc1)C2` (stereo not shown) [Example 1.032], the IC50 was determined as 263 nM.

The molecule `COc1c(OCc2ccccc2)ccc2c1CCN(Cc1ccc(C(C)NC(C)=O)cc1)C2` (stereo not shown) [Example 1.036] showed an IC50 of 101 nM.

The molecule `C[C@H](NC(=O)C1CC1)c1ccc(CN2Cc3ccc(OCC4CC4(F)F)cc3C(O)C2)cc1` (stereo partly shown) [Example 1.061] returned an IC50 of 140 nM.

The molecule `CCC(=O)Nc1nc(C)c(C(=O)N[C@@H](C)c2ccc(CN3CCc4cc(OCC5CC5)ccc4C3)cc2)s1` [Example 2.033] came in with an IC50 of 39 nM.

Take `C[C@H](NC(=O)CC(N)=O)c1ccc(CN2Cc3ccc(OCC4CC4)cc3C(F)C2)cc1` (stereo partly shown) [Example 3.034]: the IC50 turned out to be 115 nM.

For the molecule `CCCOc1ccc2c(c1)CCN(Cc1ccc(C(C)NC(C)=O)cc1)C2` (stereo not shown) [Example 1.017], the IC50 came out at 60 nM.

As for `CC(=O)NC(C)c1ccc(CN2CCc3cc(C(F)(F)F)ccc3C2)cc1` (stereo not shown) [Example 1.001, N-{1-[4-(6-Trifluoromethyl-3,4-dihydro-1H-isoquinolin-2-ylmethyl)-phenyl]-ethyl}-acetamide], the IC50 turned out to be 293 nM.

The molecule `COc1c(OCCCF)ccc2c1CCN(Cc1ccc([C@H](C)NC(C)=O)cc1)C2` [Example 1.065] came in with an IC50 of 211 nM.

In turn, `C[C@H](NC(=O)C1CC1)c1ccc(CN2CCc3cc(OC4CCC4)ccc3C2)cc1` [Example 1.044] registered an IC50 of 193 nM.

`CC(=O)NC(C)c1ccc(CN2CCc3cc(OCCC4CC4)ccc3C2)cc1` (stereo not shown) [Example 1.012] gave an IC50 of 52 nM.

Molecule `C[C@H](NC(=O)C1(O)CC1)c1ccc(CN2Cc3ccc(OCC4CC4)cc3C(F)C2)cc1` (stereo partly shown) [Example 3.062] registered an IC50 of 102 nM.

With `C[C@H](NC(=O)c1ccns1)c1ccc(CN2CCc3cc(OCC4CC4(F)F)ccc3C2)cc1` (stereo partly shown) [Example 3.008], the IC50 stood at 68 nM. This IC50 is about 1.5-fold lower than that of the molecule before.

The molecule `CC(=O)NC(C)c1ccc(CN2CCc3cc(Br)ccc3C2)cc1` (stereo not shown) [Example 1.003] registered an IC50 of 265 nM.

Take `CC(=O)Nc1nc(C)c(C(=O)N[C@@H](C)c2ccc(CN3Cc4ccc(OCC5CC5)cc4C(O)C3)cc2)s1` (stereo partly shown) [Example 3.045]: the IC50 worked out at 231 nM.

For `CC(=O)N[C@@H](C)c1ccc(CN2CCc3cc(OCCC(F)F)ccc3C2)cc1` [Example 1.063], the half-inhibitory concentration (IC50) came out at 45 nM.

`C[C@H](NC(=O)C1CC1)c1ccc(CN2CCc3c(Br)cccc3C2)cc1` [Example 2.009] showed an IC50 of 249 nM.
